Results reported in ChEMBL document CHEMBL3045802, “Synthesis and in vitro antitumor activity of new quinoline, pyrimido[4,5-b]quinoline, [1,2,3]triazino[4,5-b]quinoline, and [1,2,4]triazolo[2,3:3,4]pyrimido[6,5-b]quinoline analogs” (2013).

Assays:
Format in all cases: functional
ACHN = assay: Cytotoxicity against Homo sapiens (human) ACHN cells assessed as growth inhibition at 10 uM after 48 hr by coulter counter analysis; details: read-out: GI
HL-60(TB) = assay: Cytotoxicity against Homo sapiens (human) HL-60(TB) cells assessed as growth inhibition at 10 uM after 48 hr by coulter counter analysis; details: HL-60, 48 h, read-out: GI
SF-539 = assay: Cytotoxicity against Homo sapiens (human) SF539 cells assessed as growth inhibition at 10 uM after 48 hr by coulter counter analysis; details: SF-539, 48 h, read-out: GI
CAKI-1 = assay: Cytotoxicity against Homo sapiens (human) Caki1 cells assessed as growth inhibition at 10 uM after 48 hr by coulter counter analysis; details: CAKI-1, 48 h, read-out: GI
BT-549 = assay: Cytotoxicity against Homo sapiens (human) BT549 cells assessed as growth inhibition at 10 uM after 48 hr by coulter counter analysis; details: BT-549, 48 h, read-out: GI
Hs-578T = assay: Cytotoxicity against Homo sapiens (human) Hs578T cells assessed as growth inhibition at 10 uM after 48 hr by coulter counter analysis; details: read-out: GI
PC-3 = assay: Cytotoxicity against Homo sapiens (human) PC3 cells assessed as growth inhibition at 10 uM after 48 hr by coulter counter analysis; details: PC-3, 48 h, read-out: GI
SK-OV-3 = assay: Cytotoxicity against Homo sapiens (human) SKOV3 cells assessed as growth inhibition at 10 uM after 48 hr by coulter counter analysis; details: SK-OV-3, 48 h, read-out: GI
SF-295 = assay: Cytotoxicity against Homo sapiens (human) SF295 cells assessed as growth inhibition at 10 uM after 48 hr by coulter counter analysis; details: SF-295, 48 h, read-out: GI
NCI-H226 = assay: Cytotoxicity against Homo sapiens (human) NCI-H226 cells assessed as growth inhibition at 10 uM after 48 hr by coulter counter analysis; details: NCI-H226, 48 h, read-out: GI
COLO 205 = assay: Cytotoxicity against Homo sapiens (human) COLO205 cells assessed as growth inhibition at 10 uM after 48 hr by coulter counter analysis; details: COLO 205, 48 h, read-out: GI
A498 = assay: Cytotoxicity against Homo sapiens (human) A498 cells assessed as growth inhibition at 10 uM after 48 hr by coulter counter analysis; details: A498, 48 h, read-out: GI
HCC 2998 = assay: Cytotoxicity against Homo sapiens (human) HCC2998 cells assessed as growth inhibition at 10 uM after 48 hr by coulter counter analysis; details: HCC 2998, 48 h, read-out: GI
CCRF-CEM = assay: Cytotoxicity against Homo sapiens (human) CCRF-CEM cells assessed as growth inhibition at 10 uM after 48 hr by coulter counter analysis; details: read-out: GI
UACC-257 = assay: Cytotoxicity against Homo sapiens (human) UACC257 cells assessed as growth inhibition at 10 uM after 48 hr by coulter counter analysis; details: UACC-257, 48 h, read-out: GI
OVCAR-5 = assay: Cytotoxicity against Homo sapiens (human) OVCAR5 cells assessed as growth inhibition at 10 uM after 48 hr by coulter counter analysis; details: OVCAR-5, 48 h, read-out: GI
HCT-15 = assay: Cytotoxicity against Homo sapiens (human) HCT15 cells assessed as growth inhibition at 10 uM after 48 hr by coulter counter analysis; details: HCT-15, 48 h, read-out: GI
Malme-3M = assay: Cytotoxicity against Homo sapiens (human) MALME-3M cells assessed as growth inhibition at 10 uM after 48 hr by coulter counter analysis; details: read-out: GI
SK-MEL-2 = assay: Cytotoxicity against Homo sapiens (human) SK-MEL-2 cells assessed as growth inhibition at 10 uM after 48 hr by coulter counter analysis; details: SK-MEL-2, 48 h, read-out: GI
HOP-92 = assay: Cytotoxicity against Homo sapiens (human) HOP92 cells assessed as growth inhibition at 10 uM after 48 hr by coulter counter analysis; details: HOP-92, 48 h, read-out: GI
LOX IMVI = assay: Cytotoxicity against Homo sapiens (human) LOXIMVI cells assessed as growth inhibition at 10 uM after 48 hr by coulter counter analysis; details: read-out: GI
EKVX = assay: Cytotoxicity against Homo sapiens (human) EKVX cells assessed as growth inhibition at 10 uM after 48 hr by coulter counter analysis; details: read-out: GI
HCT-116 = assay: Cytotoxicity against Homo sapiens (human) HCT116 cells assessed as growth inhibition at 10 uM after 48 hr by coulter counter analysis; details: HCT-116, 48 h, read-out: GI
[1] = Cytotoxicity against Homo sapiens (human) NCI-ADR-RES cells assessed as growth inhibition at 10 uM after 48 hr by coulter counter analysis; details: read-out: GI
OVCAR-8 = assay: Cytotoxicity against Homo sapiens (human) OVCAR8 cells assessed as growth inhibition at 10 uM after 48 hr by coulter counter analysis; details: OVCAR-8, 48 h, read-out: GI
OVCAR-4 = assay: Cytotoxicity against Homo sapiens (human) OVCAR4 cells assessed as growth inhibition at 10 uM after 48 hr by coulter counter analysis; details: OVCAR-4, 48 h, read-out: GI
K562 = assay: Cytotoxicity against Homo sapiens (human) K562 cells assessed as growth inhibition at 10 uM after 48 hr by coulter counter analysis; details: K562, 48 h, read-out: GI
MDA-MB-231 = assay: Cytotoxicity against Homo sapiens (human) MDA-MB-231 cells assessed as growth inhibition at 10 uM after 48 hr by coulter counter analysis; details: MDA-MB-231, 48 h, read-out: GI
RXF 393 = assay: Cytotoxicity against Homo sapiens (human) RXF393 cells assessed as growth inhibition at 10 uM after 48 hr by coulter counter analysis; details: RXF 393, 48 h, read-out: GI
MDA-MB-468 = assay: Cytotoxicity against Homo sapiens (human) MDA-MB-468 cells assessed as growth inhibition at 10 uM after 48 hr by coulter counter analysis; details: MDA-MB-468, 48 h, read-out: GI
SF-268 = assay: Cytotoxicity against Homo sapiens (human) SF268 cells assessed as growth inhibition at 10 uM after 48 hr by coulter counter analysis; details: SF-268, 48 h, read-out: GI
SK-MEL-5 = assay: Cytotoxicity against Homo sapiens (human) SK-MEL-5 cells assessed as growth inhibition at 10 uM after 48 hr by coulter counter analysis; details: SK-MEL-5, 48 h, read-out: GI
HT-29 = assay: Cytotoxicity against Homo sapiens (human) HT-29 cells assessed as growth inhibition at 10 uM after 48 hr by coulter counter analysis; details: HT-29, 48 h, read-out: GI
SN12C = assay: Cytotoxicity against Homo sapiens (human) SN12C cells assessed as growth inhibition at 10 uM after 48 hr by coulter counter analysis; details: read-out: GI

Compound	inhibition of growth at 10 µM (ACHN)	inhibition of growth at 10 µM (HL-60(TB))	inhibition of growth at 10 µM (SF-539)	inhibition of growth at 10 µM (CAKI-1)	inhibition of growth at 10 µM (BT-549)	inhibition of growth at 10 µM (Hs-578T)	inhibition of growth at 10 µM (PC-3)	inhibition of growth at 10 µM (SK-OV-3)	inhibition of growth at 10 µM (SF-295)	inhibition of growth at 10 µM (NCI-H226)	inhibition of growth at 10 µM (COLO 205)	inhibition of growth at 10 µM (A498)	inhibition of growth at 10 µM (HCC 2998)	inhibition of growth at 10 µM (CCRF-CEM)	inhibition of growth at 10 µM (UACC-257)	inhibition of growth at 10 µM (OVCAR-5)	inhibition of growth at 10 µM (HCT-15)	inhibition of growth at 10 µM (Malme-3M)	inhibition of growth at 10 µM (SK-MEL-2)	inhibition of growth at 10 µM (HOP-92)	further results
COc1ccc(C2C3=C(CCCC3)Nc3ncn4nc(-c5ccccc5)nc4c32)cc1OC (stereo not drawn)	20%	< 10%	< 10%	13.1%	< 10%	< 10%	19.8%	< 10%	29.6%	19.6%	< 10%	53.6%	< 10%	< 10%	< 10%	11.7%	13.1%	< 10%	< 10%	36.8%	inhibition of growth at 10 µM (LOX IMVI): < 10%; inhibition of growth at 10 µM (EKVX): 11%; inhibition of growth at 10 µM (HCT-116): < 10%; inhibition of growth at 10 µM [1]: < 10%; inhibition of growth at 10 µM (OVCAR-8): 14.7%; inhibition of growth at 10 µM (OVCAR-4): < 10%; inhibition of growth at 10 µM (K562): < 10%; inhibition of growth at 10 µM (MDA-MB-231): 12.6%; inhibition of growth at 10 µM (RXF 393): 19.9%; inhibition of growth at 10 µM (MDA-MB-468): 23.2%; inhibition of growth at 10 µM (SF-268): < 10%; inhibition of growth at 10 µM (SK-MEL-5): < 10%; inhibition of growth at 10 µM (HT-29): < 10%; inhibition of growth at 10 µM (SN12C): < 10%
COc1ccc(C2C3=C(CCCC3)Nc3ncn4nc(-c5ccc(O)cc5)nc4c32)cc1OC (stereo not drawn)	< 10%	< 10%	< 10%	< 10%	< 10%	< 10%	< 10%	< 10%	< 10%	15.3%	< 10%	< 10%	< 10%	< 10%	< 10%	< 10%	< 10%	< 10%	< 10%	12.2%	inhibition of growth at 10 µM (LOX IMVI): < 10%; inhibition of growth at 10 µM (EKVX): < 10%; inhibition of growth at 10 µM (HCT-116): < 10%; inhibition of growth at 10 µM [1]: < 10%; inhibition of growth at 10 µM (OVCAR-8): < 10%; inhibition of growth at 10 µM (OVCAR-4): < 10%; inhibition of growth at 10 µM (K562): < 10%; inhibition of growth at 10 µM (MDA-MB-231): 12.8%; inhibition of growth at 10 µM (RXF 393): < 10%; inhibition of growth at 10 µM (MDA-MB-468): 21.4%; inhibition of growth at 10 µM (SF-268): < 10%; inhibition of growth at 10 µM (SK-MEL-5): 23.2%; inhibition of growth at 10 µM (HT-29): < 10%; inhibition of growth at 10 µM (SN12C): < 10%
